Read-outs that look alike come from different tables or passages of the source.
System: PLB-985 cells
Experiment: ROS production (isoluminol/HRP luminescence) in PLB-985 cells, Biological Example 1
Format: cell-based
Conditions: 25 μM compound vs. DMSO
Description: To cells (HL-60 or PLB-985) in HBSS medium was added compound (25 or 50 μM), isoluminol and Horse Radish Peroxidase, fraction II. Luminescence was measured for 10-30 minutes and the area under the […] curve was divided by that from a control experiment to give the activity expressed as fold change.
Each assay indicated below was performed at a different site, at a different time, by different personnel and/or using different cell lines, concentrations and controls. The cell line, concentration of example compound and control used in respect of each assay were as indicated below. The values obtained from these different setups (each using an otherwise identical assay) are given as Activity A, B, C, D or E in Table 5 below. The values are expressed as fold increase of NADPH activity in the presence of the relevant of compound (as indicated below) compared to the relevant control (as indicated below).
Activity A: HL-60 cells; 50 μM compound vs. blank Activity B: PLB-985 cells; 25 μM compound vs. blank Activity C, D and E: PLB-985 cells; 25 μM compound vs. DMSO

[1] = setup E, read-out: Activity E (fold increase of NADPH activity compared to control)
[2] = setup D, read-out: Activity D (fold increase of NADPH activity compared to control)
[3] = setup C, read-out: Activity C (fold increase of NADPH activity compared to control)

Row | SMILES | fold induction at 25 µM [1] | fold induction at 25 µM [2] | fold induction at 25 µM [3]
1 | Cc1ccc(NC(=O)Cn2cc(C(=O)c3ccc4ccccc4c3)c(=O)c3cc4c(cc32)OCO4)cc1 [Example 2, 2-[6,7-Methylenedioxy-3-(2-naphthoyl)-4-oxo-1-quinolinyl]-N-p-tolylacetamide] | 10 |  | 
2 | COc1cccc(NC(=O)Cn2cc(C(=O)c3ccc4ccccc4c3)c(=O)c3cc4c(cc32)OCO4)c1 [Example 3, N-m-Anisyl-2-[6,7-methylenedioxy-3-(2-naphthoyl)-4-oxo-1-quinolinyl]acetamide] | 1.8 |  | 
3 | O=C(Cn1cc(C(=O)c2ccc3ccccc3c2)c(=O)c2cc3c(cc21)OCO3)Nc1cccc(Cl)c1 [Example 4, N-(3-chlorophenyl)-2-[6,7-methylenedioxy-3-(2-naphthoyl)-4-oxo-1-quinolinyl]acetamide] | 3.4 |  | 
4 | O=C(Cn1cc(C(=O)c2ccc3ccccc3c2)c(=O)c2cc3c(cc21)OCO3)Nc1ccc(OC(F)(F)F)cc1 [Example 5, 2-[6,7-Methylenedioxy-3-(2-naphthoyl)-4-oxo-1-quinolinyl]-N-(4-trifluoromethoxyphenyl)acetamide] | 4.3 |  | 
5 | O=C(Cn1cc(C(=O)c2ccc3ccccc3c2)c(=O)c2cc3c(cc21)OCO3)Nc1ccc(Cl)cc1Cl [Example 6, N-(2,4-DichlorophenyI)-2-[6,7-methylenedioxy-3-(2-naphthoyl)-4-oxo-1-quinolinyl]acetamide] | 1.7 |  | 
6 | O=C(Cn1cc(C(=O)c2ccc3ccccc3c2)c(=O)c2cc3c(cc21)OCO3)Nc1ccc(Cl)c(Cl)c1 [Example 7, N-(3,4-Dichlorophenyl)-2-[6,7-methylenedioxy-3-(2-naphthoyl)-4-oxo-1-quinolinyl]acetamide] | 2.2 |  | 
7 | O=C(Cn1cc(C(=O)c2ccc3ccccc3c2)c(=O)c2cc3c(cc21)OCO3)Nc1cccc(OC(F)(F)F)c1 [Example 8, 2-[6,7-Methylenedioxy-3-(2-naphthoyI)-4-oxo-1-quinolinyl]-N-(3-trifluoromethoxyphenyl)acetamide] | 1.3 |  | 
8 | CCCc1ccc(NC(=O)Cn2cc(C(=O)c3ccc4ccccc4c3)c(=O)c3cc4c(cc32)OCO4)cc1 [Example 9, 2-[6,7-Methylenedioxy-3-(2-naphthoyl)-4-oxo-1-quinolinyl]-N-(4-propylphenyl)acetamide] | 2 |  | 
9 | O=C(Cn1cc(C(=O)c2ccc3ccccc3c2)c(=O)c2cc3c(cc21)OCO3)Nc1ccccc1Cl [Example 10, N-(2-ChlorophenyI)-2-[6,7-methylenedioxy-3-(2-naphthoyl)-4-oxo-1-quinolinyl]acetamide] | 1.7 |  | 
10 | O=C(Cn1cc(C(=O)c2ccc3ccccc3c2)c(=O)c2cc3c(cc21)OCO3)Nc1ccc(C(F)(F)F)cc1 [Example 11, 2-[6,7-Methylenedioxy-3-(2-naphthoyl)-4-oxo-1-quinolinyl]-N-(4-trifluoromethylphenyl)acetamide] | 8.8 |  | 
11 | O=C(Cn1cc(C(=O)c2ccc3ccccc3c2)c(=O)c2cc3c(cc21)OCO3)Nc1cccnc1 [Example 12, 2-[6,7-Methylenedioxy-3-(2-naphthoyl)-4-oxo-1-quinolinyl]-N-(3-pyridyl)acetamide] | 3.2 |  | 
12 | CN(C(=O)Cn1cc(C(=O)c2ccc3ccccc3c2)c(=O)c2cc3c(cc21)OCO3)c1ccc(Cl)cc1 [Example 15, N-(4-Chlorophenyl)-N-methyl-2-[6,7-methylenedioxy-3-(2-naphthoyl)-4-oxo-1-quinolinyl]acetamide] | 4.3 |  | 
13 | COc1ccc2c(c1)c(=O)c(C(=O)c1ccc3ccccc3c1)cn2CC(=O)Nc1ccc(Cl)cc1 [Example 16, N-(4-Chlorophenyl)-2-[6-methoxy-3-(2-naphthoyl)-4-oxo-1-quinolinyl]acetamide] | 5.9 | 35.4 | 
14 | COc1cc2c(=O)c(C(=O)c3ccc4ccccc4c3)cn(CC(=O)Nc3ccc(Cl)cc3)c2cc1OC [Example 17, N-(4-Chlorophenyl)-2-[6,7-dimethoxy-3-(2-naphthoyl)-4-oxo-1-quinolinyl]acetamide] |  | 16.3 | 
15 | COc1ccc2c(=O)c(C(=O)c3ccc4ccccc4c3)cn(CC(=O)Nc3ccc(Cl)cc3)c2c1 [Example 18, N-(4-Chlorophenyl)-2-[7-methoxy-3-(2-naphthoyl)-4-oxo-1-quinolinyl]acetamide] |  | 12.6 | 
16 | COc1cc2c(=O)c(C(=O)c3ccc4ccccc4c3)cn(CC(=O)Nc3ccc(Cl)cc3)c2cc1C [Example 19, N-(4-Chlorophenyl)-2-[6-methoxy-7-methyl-3-(2-naphthoyl)-4-oxo-1-quinolinyl]acetamide] |  | 10.9 | 
17 | COc1cc2c(cc1C)c(=O)c(C(=O)c1ccc3ccccc3c1)cn2CC(=O)Nc1ccc(Cl)cc1 [Example 20, N-(4-Chlorophenyl)-2-[7-methoxy-6-methyl-3-(2-naphthoyl)-4-oxo-1-quinolinyl]acetamide] |  | 6.3 | 

Row | SMILES | fold induction at 25 µM [1] | fold induction at 25 µM [2] | fold induction at 25 µM [3]
18 | COc1ccc2c(n1)c(=O)c(C(=O)c1ccc3ccccc3c1)cn2CC(=O)Nc1ccc(Cl)cc1 [Example 21, N-(4-Chlorophenyl)-2-[6-methoxy-3-(2-naphthoyl)-4-oxo-(1,5-naphthyridin-1-yl)]acetamide] | 9.2 | 68.7 | 
19 | O=C(Cn1cc(C(=O)c2ccc3ccccc3c2)c(=O)c2nc(O)ccc21)Nc1ccc(Cl)cc1 [Example 22, N-(4-Chlorophenyl)-2-[6-hydroxy-3-(2-naphthoyl)-4-oxo-(1,5-naphthyridin-1-yl)]-acetamide] | 20.2 |  | 
20 | COc1cc2c(cn1)c(=O)c(C(=O)c1ccc3ccccc3c1)cn2CC(=O)Nc1ccc(Cl)cc1 [Example 23, N-(4-Chlorophenyl)-2-[7-methoxy-3-(2-naphthoyl)-4-oxo-(1,6-naphthyridin-1-yl)]-acetamide] | 2.1 |  | 
21 | COc1cc2c(=O)c(C(=O)c3ccc4ccccc4c3)cn(CC(=O)Nc3ccc(Cl)cc3)c2cn1 [Example 24, N-(4-Chlorophenyl)-2-[6-methoxy-3-(2-naphthoyl)-4-oxo-(1,7-naphthyridin-1-yl)]-acetamide] | 1.7 |  | 
22 | COc1cccc2c1c(=O)c(C(=O)c1ccc(F)cc1)cn2CC(=O)Nc1ccc(Cl)cc1 [Example 25] | 34.6 |  | 
23 | COc1ccc(NC(=O)Cn2cc(C(=O)c3ccco3)c(=O)c3cc4c(cc32)OCO4)cc1 [Example 26, N-p-Anisyl-2-[3-(2-furoyl)-6,7-methylenedioxy-4-oxo-1-quinolinyl]acetamide] |  |  | 14.9
24 | O=C(Cn1cc(C(=O)c2ccc3ccccc3c2)c(=O)c2cc3c(cc21)OCO3)Nc1ccc(Cl)cn1 [Example 28, N-(5-Chloro-2-pyridyl)-2-[6,7-methylenedioxy-3-(2-naphthoyl)-4-oxo-1-quinolinyl]-acetamide] |  |  | 16.1
25 | COc1ccc(C(=O)c2cn(CC(=O)Nc3ccc(Cl)cc3)c3cc4c(cc3c2=O)OCO4)cc1 [Example 29, 2-[3-p-Anisoyl-6,7-methylenedioxy-4-oxo-1-quinolinyl]-N-(4-chlorophenyl)acetamide] |  |  | 55
26 | COc1ccc(NC(=O)Cn2cc(C(=O)c3ccc(C)c(C)c3)c(=O)c3cc4c(cc32)OCO4)c(OC)c1 [Example 30, N-(2,4-Dimethoxyphenyl)-2-[3-(3,4-dimethylbenzoyl)-6,7-methylenedioxy-4-oxo-1-quinolinyl]acetamide] | 4.1 |  | 28.2
27 | COc1ccc(NC(=O)Cn2cc(C(=O)c3ccc(F)cc3)c(=O)c3cc4c(cc32)OCO4)cc1OC [Example 31, N-(3,4-Dimethoxyphenyl)-2-[3-(4-fluorobenzoyl)-6,7-methylenedioxy-4-oxo-1-quinolinyl]acetamide] |  |  | 49.5
28 | O=C(Cn1cc(C(=O)c2cccc(F)c2)c(=O)c2cc3c(cc21)OCO3)Nc1ccc(Cl)cc1 [Example 32, N-(4-Chlorophenyl)-2-[3-(3-fluorobenzoyl)-6,7-methylenedioxy-4-oxo-1-quinolinyl]acetamide] |  |  | 47.8
29 | O=C(Cn1cc(C(=O)c2ccc(F)cc2)c(=O)c2cc3c(cc21)OCO3)Nc1ccc(Cl)cn1 [Example 33, N-(5-Chloro-2-pyridyl)-2-[3-(4-fluorobenzoyl)-6,7-methylenedioxy-4-oxo-1-quinolinyl]acetamide] |  |  | 45.6
30 | O=C(Cn1cc(C(=O)c2cccnc2)c(=O)c2cc3c(cc21)OCO3)Nc1ccc(Cl)cn1 [Example 34, N-(5-Chloro-2-pyridyl)-2-(6,7-methylenedioxy-3-nicotinoyl-4-oxo-1-quinolinyl)acetamide] |  |  | 27.5
31 | Cc1ccc(C(=O)c2cn(CC(=O)Nc3ccc(N(C)C)cc3)c3cc4c(cc3c2=O)OCO4)cc1C [Example 35] |  |  | 6.3
32 | O=C(Cn1cc(C(=O)c2ccc(Cl)cc2)c(=O)c2cc3c(cc21)OCO3)Nc1ccc(Cl)cn1 [Example 36, 2-[3-(4-Chlorobenzoyl)-6,7-methylenedioxy-4-oxo-1-quinolinyl]-N-(5-chloro-2-pyridyl)acetamide] |  |  | 46.4
33 | COc1ccc2c(c1)c(=O)c(C(=O)c1ccc(F)cc1)cn2CC(=O)Nc1ccc(C)cc1 [Example 37, 2-[3-(4-fluorobenzoyl)-6-methoxy-4-oxo-1-quinolinyl]-N-p-tolylacetamide] | 8.4 |  | 
34 | COc1ccc2c(c1)c(=O)c(C(=O)c1ccc(F)cc1)cn2CC(=O)Nc1ccc(C(F)(F)F)cc1 [Example 38, 2-[3-(4-Fluorobenzoyl)-6-methoxy-4-oxo-1-quinolinyl]-N-(4-trifluoromethylphenyl)acetamide] | 7 |  | 

From US20140018384A1, “QUINOLINONE DERIVATIVES FOR USE IN THE TREATMENT OF AN AUTOIMMUNE DISEASE AND/OR AN INFLAMMATORY DISEASE” (PRONOXIS AB, priority 2011, published 2014)
